Test results: article PMC9241057, “Ru(II)arene(N^N bpy/phen)-based RAPTA complexes for in vitro anti-tumour activity in human glioblastoma cancer cell lines and in vivo toxicity studies in a zebrafish model” (RSC Advances, 2022)

How the values were obtained:
[1] = Solubility; details: DMSO-10% DMEM medium (1:99 v/v, comparable to cell media)
[2] = test system: TNF-α-induced NF-κB phosphorylation; assay: Real-time RT-PCR; type: cell-based, human; details: glioma cells, 48 h
Text: It is known that the NF-κB pathway plays an important role in the modulation of inflammatory and immune responses.[25] Under normal conditions, NF-κB is found in the cytoplasm as the dimer complex p65/p50 with the kappa B inhibitor forming the NF-κB-IκB complex which involves TNF-α. As expected, the treatment with TNF-α induces IκB protein phosphorylation and the NF-κB dimer p65/p50 is translocated into the nucleus. Inside the nucleus, the NF-κB dimer binds to its own DNA and the κB site, initiating the transcription of many genes associated with proliferation as well as the invasion of cells, anti-apoptosis along with drug resistivity (e.g., Bcl-2 family, Bcl-XL, cyclin D1, c-myc, interleukin-1 and 6 (IL-6), cyclooxygenase-2 (COX-2), inducible NO-synthase (iNOS)). Complex 4c reduced TNF-α-induced NF-κB phosphorylation at 48 h. In summary, complex 4c inhibited the TNF-α-induced NF-κB phosphorylation in glioma cells and NF-κB could be validated as a targeted therapeutic molecule for tumour diseases (Fig. S5 ^†).
Cultured cells U87MG and T98G were treated with various concentrations of 4c (20–160 μM) for 48 h. Total RNA was extracted and complementary DNA (cDNA) was transcribed using Qiazol reagent and Thermo Scientific Revert Aid First Strand cDNA Synthesis Kit. […] The amplified products were analyzed by a melting curve analysis.

[3] = n-Octanol/water partition coefficient, shake-flask method
Protocol: n-Octanol–water partition coefficient (log P o/w)8
Using the previously reported shake flask approach, the log Po/w of the RAPTA complexes
followed the previously described procedure. An orbital shaker was used to shake a known
amount of each complexes in water (pre-saturated with n-octanol). The solution was
centrifuged at 3000 rpm for 10 minutes to allow phase separation. Different ratios (0.5:1, 1:1,
and 2:1) of saturated solutions were shaken for 20 minutes on an orbital shaker with pre-
saturated n-octanol to get the partition coefficient. The absorbance of aliquots of the aqueous
and octanol layers were measured with a UV-Vis spectrophotometer after adequate dilution.
The concentrations of the complexes in each layer were estimated using the corresponding
molar extinction coefficients, and the partition coefficient (log Po/w) values were computed

[4] = test system: Ct-DNA; assay: DNA binding study, UV-visible absorption titration; design: species or system calf
Protocol: The DNA binding proficiency of RAPTA complexes was explored by applying the concept of electronic absorption titration. The binding propensity of the RAPTA complex, 4c with Ct-DNA, was investigated using UV-visible studies. […] From the plot of [DNA]/(εa − εf) vs. [DNA] the intrinsic binding constant (Kb) was recognized for the specified 4c–DNA conjugate.
The binding capability of the complexes with calf-thymus DNA (Ct-DNA) was evaluated using electronic absorption spectroscopy, and the competitive binding assay was studied using ethidium bromide (EtBr) as a quencher by fluorescence spectroscopy.
The DNA binding experiment was performed in aqueous medium using RAPTA complex 4c in Tris-HCl buffer (5 mM Tris-HCl in water, pH 7.4). The concentration of Ct-DNA was determined using its absorbance at 260 nm and a known molar absorption coefficient of 6600 M-1.cm-1. In cuvettes, an equal amount of DNA was introduced to both the sample and the reference. […] The sample was equilibrated with CT-DNA for around 5 minutes before each measurement, and then the complex's absorbance was measured. The intrinsic DNA binding constant (K b) was calculated using the equation (i): […]
UV and Fluorescence study
All of these RAPTA complexes were studied in a 10% DMSO solution using UV and fluorescence. […] Quantum yield was calculated according to the equation (ii): […]

[5] = test system: zebrafish; assay: In vivo biodistribution study in zebrafish; details: 25 μg g^−1, 15 minutes
Protocol: Biodistribution and sequestration studies of complex 4c were conducted via the caudal vein injection into the zebrafish. After 15 minutes (25 μg g^−1) of exposure, the fish were sacrificed and different organs (brain, heart, kidney, intestine, notochord and digestive system) were dissected and the biodistribution of this complex into these organs was measured by fluorescence microscopy. A comparative study was performed with complex 4c and Evans blue dye and was analyzed by the confocal imaging of the tissue sections. From this experiment, it was observed that the sensitivity of zebrafish towards 4c was sequestered in the brain, heart, kidney, intestine, notochord and digestive system. […] Furthermore, this fluorescence-based interaction could provide us with an idea of the uptake mechanism via crossing the blood–brain barrier.
Zebrafish were anesthetized with 2-phenoxyethanol and injected with complex 4cvia […]. After injection at different times, the fish were sacrificed and the organs were collected and fixed with 4% paraformaldehyde and 4% glutaraldehyde, followed by dehydration with the gradient increase of ethanol (75%, 95%, 100%) for 20 min each, further with xylene for 1 h and then fixed in Paraplast. […] Sequestration of complex 4c in different organs was investigated by confocal fluorescence microscopy using a CLSM (Zeiss LSM 710) microscope. […]

[6] = test system: zebrafish embryos; details: embryos exposed for 5 h to 100 μM
Protocol: Zebrafish were purchased from Zebrafish CRO, Pentagrit Discovery, Chennai 600100. All the procedures were conducted with reference to the guidelines of OECD 203 (OECD 203, 1992).[29] The local wild-type zebrafish strain weighing approximately 500–600 mg (2–3 months old) were maintained under standard laboratory conditions at 28 °C under a 14 : 10 h light/dark cycle with the conductivity of the water being 350 μS, maintained at pH 7.2–7.4. All the animal experiments including surgical procedures were conducted according to the procedures of the Committee for the Purpose of Control and Supervision of Experiments on Animals (CPCSEA), Govt. of India, as instructed by Institutional Animal ethical guidelines (VIT/IAEC/2019/16/Aug10/15), VIT University.[29] All animal procedures were performed in accordance with the Guidelines for Care and Use of Laboratory Animals of “VIT” University and approved by the Animal Ethics Committee of “VIT”.
Freshly laid eggs [<1 h post-fertilisation (hpf)] were transferred to 50 ml crystallising dishes filled with the respective test solutions. After the successful control of fertilisation, the eggs were separately transferred to 24-well plates with 2 ml of test solution per well. […] The embryos were analysed under an Olympus CKX41 inverted microscope (Olympus, Hamburg, Germany).

C1N2CN3CN1CP(C2)C3.Cc1ccc(C(C)C)cc1.Cc1ccnc2c1ccc1c(C)ccnc12.F[P-](F)(F)(F)(F)F.F[P-](F)(F)(F)(F)F.[Ru+2] [4c, [(η^6-p-Cymene)Ru^II(κ^2-N,N-4,7dimethylphenanthroline)(PTA)]·2PF6]
solubility [1]: 18 mM
TNF-α-induced NF-κB phosphorylation [2]: reduced
log P (partition coefficient in n-octanol/water) [3]: 0.30±0.04
Change in absorbance [4]: Hyperchromism
Δε (%), % of hyperchromism/hypochromism [4]: 50%
accumulation in the brain [5]: accumulation was significant
sequestration in digestive system, kidney and notochord [5]: maximum sequestration
morbidity or mortality of embryos [6]: No significant morbidity or mortality
